The values below come from US20220241409A1, “WATER SOLUBLE ADJUVANT AND COMPOSITION CONTAINING SAME” (Sumitomo Dainippon Pharma Co., Ltd., priority 2019, published 2022).

For experiment [1], the system named is HLA-A*02:01 transgenic mouse. Briefly: In vivo adjuvant activity, CTL induction with vaccine a, IFNγ ELISPOT (Test 7). The conditions noted are these: for CTL counts responsive to Peptide SEQ ID No. 5: compound added to vaccine a versus no compound, Example 2 325 ng per body, Reference example 12 225 ng per body, twice, one week interval. How it is done: The in vivo adjuvant activity of the compound prepared in Example 2 and the compound prepared in Reference example 12 was evaluated in the following procedure. To vaccine a was added the compound prepared in Example 2 or the compound prepared in Reference example 12 to prepare each vaccine, and the vaccine was administered to a HLA-A*02:01 transgenic mouse, and the adjuvant activity of each vaccine was evaluated by the method of testing antigen-specific CTL induction.
Specifically, vaccine a prepared like Test 6 was injected to mice intradermally at the tail base area in an amount for administering 300 μg of Compound of formula 4 per body and 225 μg of Peptide SEQ ID NO. 3 per body. Or, in the step of preparing vaccine a, the compound prepared in Example 2 was added to the diluted peptide solution to prepare a vaccine, and the prepared vaccine was injected to mice intradermally at the tail base area in an amount for administering 300 μg of Compound of formula 4 per body, 225 μg of Peptide SEQ ID No. 3 per body, and 325 ng of the compound prepared in Example 2 per body. Or, in the step of preparing vaccine a, the compound prepared in Reference example 12 was added to the diluted peptide solution to prepare a vaccine, and the prepared vaccine was injected to mice intradermally at the tail base area in an amount for administering 300 μg of Compound of formula 4 per body, 225 μg of Peptide SEQ ID No. 3 per body, and 225 ng of the compound prepared in Reference example 12 per body. The administrations were done twice, which had one week interval. One week after the final administration, the mice were sacrificed with CO2 gas. Splenocytes were harvested from spleens removed from the mice. In particular, an ELISPOT plate was treated with an anti-mouse-IFNγ antibody on the day before preparation of the splenocyte samples. On the next day, the plate was blocked by treatment with an RPMI 1640 medium with 10% FBS. To the blocked ELISPOT plate, the prepared splenocyte samples were added at 6.25×10^4 cells/well. […] Stained spots were counted on ImmunoSpot Analyzer.

Experiment [2] has as its system Antigen-Specific CTL. The experiment in a line: Immune response of antigen-specific CTL for peptide and tumor cell, vaccine b (Test 12). Format: in vivo, mouse. As for the experimental part:
Vaccine b prepared like Test 8 was injected to a HLA-A*02:01 transgenic mouse intradermally at the tail base area in an amount for administering 300 μg of Compound of formula 4 per body and 225 μg of Peptide SEQ ID No. 3 per body. Or, in the step of preparing vaccine b, the compound prepared in Example 2 was added to the diluted peptide solution to prepare a vaccine, and the prepared vaccine was injected to a HLA-A*02:01 transgenic mouse intradermally at the tail base area in an amount for administering 300 μg of Compound of formula 4 per body, 225 μg of Peptide SEQ ID No. 3 per body, and 325 ng of the compound prepared in Example 2 per body. One week later, the mice were sacrificed with CO2 gas, and then spleens removed from the mice. A splenocyte suspension was prepared from the spleens with CTM. Like Test 6, Peptide (SEQ ID No. 1) was added to the splenocyte-containing ELISPOT plate, and the plate was incubated overnight at 37° C. under an atmosphere of 5% CO2 to re-stimulate the peptide in vitro. Then, after removal of the supernatant from the wells, stained spots on the ELISPOT plate were counted. […] The concentration of mouse IFN-γ in the culture supernatant was measured with an ELISA kit.

The test system of experiment [3] is Antigen-Specific CTL. The experiment in a line: Action of anti-PD-1 antibody in immune response of antigen-specific CTL for peptide and tumor cell (Test 13). Format: in vivo, mouse. The conditions noted are these: splenocyte of mice receiving vaccine b with Example 2 (325 ng per body, twice); antibody 37.5 μg/mL; culture with tumor cells and Peptide SEQ ID No. 1 about three days. How it is done: Vaccine b prepared like Test 8 was injected to a HLA-A*02:01 transgenic mouse intradermally at the tail base area in an amount for administering 300 μg of Compound of formula 4 per body and 225 μg of Peptide SEQ ID No. 3 per body. Or, a vaccine prepared by adding the compound prepared in Example 2 to vaccine b was injected to a HLA-A*02:01 transgenic mouse intradermally at the tail base area in an amount for administering 300 μg of Compound of formula 4 per body, 225 μg of Peptide SEQ ID No. 3 per body, and 325 ng of the compound prepared in Example 2 per body. The administrations were done twice, which had one week interval. One week after the final administration, the mice were sacrificed with CO2 gas, and then spleens removed from the mice. A splenocyte suspension was prepared from the spleens with CTM. And, like Test 11, Peptide SEQ ID No. 1 was pulsed to a part of the splenocyte, and the cell was mixed with LLC-HHD-WT1 tumor cell. To the mixed cells was added an isotype control antibody (Rat IgG2ax, BD Pharmingen) or anti-PD-1 antibody (clone 29F.1A12, Biolegend) at a final concentration of 37.5 μg/mL, and the mixture was cultured at 37° C. under an atmosphere of 5% CO2 for about three days. The concentration of mouse IFN-γ in the culture supernatant was measured with an ELISA kit.

For the next experiment, the system named is mouse splenocyte. Briefly: Activation of immune cells, mouse splenocyte cytokine/chemokine production (Test 5). Format: cell-based. The note with it: 200 nmol/L, one day, compared with only DMSO. How it is done:
Splenocyte was derived from the spleen of a HLA-A*02:01 transgenic mouse, and cryopreserved. Cryopreserved mouse splenocyte was reconstituted, suspended in RPMI 1640 medium with 10% FBS, and seeded on a U-bottom 96 well plate at 4×10^5 cells/well. The compound prepared in Example 3 was added in the presence of 0.1% (v/v) DMSO to the wells at a final concentration of 200 nmol/L. The plate was incubated at 37° C. under an atmosphere of 5% CO2. One day after the incubation, the culture supernatant was collected. The concentration of cytokine and chemokine (GM-CSF, IFNγ, IL-6, IP-10, MCP-1, MIP-1α, MIP-1β, Rantes, and TNFα) which were included in each culture supernatant was measured with Milliplex Mouse Cytokine/Chemokine Magnetic Bead Panel kit and Luminex system in accordance with the manufacturer's protocol.
The results are shown in FIG. 3-A to FIG. 3-I. The white bar indicates the mean number of the concentration of cytokine and chemokine in the culture supernatant from three wells to which only DMSO was added, and the black bar indicates the mean number of the concentration of cytokine and chemokine in the culture supernatant from three wells to which the compound prepared in Example 3 was added. The compound prepared in Example 3 made the yield of cytokine and chemokine higher, compared with the case of only DMSO.

For `CCCCOc1nc(N)c2[nH]c(=O)n(Cc3ccc(CN(C)CCOCCOCCOCCOCCO)nc3)c2n1` [Example 2, 6-amino-2-butoxy-9-{[6-(16-hydroxy-2-methyl-5,8,11,14-tetraoxa-2-azahexadecan-1-yl)pyridin-3-yl]methyl}-7,9-dihydro-8H-purin-8-one-trifluoroacetate], the “increase of the CTL counts (Peptide SEQ ID No. 5) compared with Reference example 12” value in experiment [1] (Example 2 325 ng per body versus Reference example 12 225 ng per body, added to vaccine) is given as “more”. Further, the “CTL counts responsive to Peptide SEQ ID No. 5” value in experiment [1] is listed as “more”. Besides, in the experiment with Antigen-Specific CTL [2] (IFN-γ ELISPOT, 325 ng per body in vaccine b, one week later), the “CTLs specific to Peptide (SEQ ID No. 1) in splenocyte, relative to vaccine b without compound” value came to 1.8 times. In addition, the “amount of IFN-γ produced from the CTL, relative to vaccine b without compound” value with Antigen-Specific CTL [2] (about three days culture with LLC-HHD-WT1 tumor cells and Peptide SEQ ID No. 1, ELISA, average of 3 wells) was 8.7 times. Moreover, the “amount of IFN-γ produced from the CTL with anti-PD-1 antibody relative to isotype control antibody” value with Antigen-Specific CTL [3] came to 4 times.

In the case of `CCCCOc1nc(N)c2[nH]c(=O)n(Cc3ccc(CN(C)CCOCCOCCOCCOCCO)cc3)c2n1` [Example 3, 6-amino-2-butoxy-9-{[4-(16-hydroxy-2-methyl-5,8,11,14-tetraoxa-2-azahexadecan-1-yl)phenyl]methyl}-7,9-dihydro-8H-purin-8-one], the “yield of cytokine and chemokine (GM-CSF, IFNγ, IL-6, IP-10, MCP-1, MIP-1α, MIP-1β, Rantes, TNFα)” value in the experiment with mouse splenocyte is “higher”.

As for `CCCCOc1nc(N)c2[nH]c(=O)n(Cc3ccc(CNC)nc3)c2n1` [Reference example 12, reference compound], in experiment [1], the “CTL counts responsive to Peptide SEQ ID No. 5” value was “more”.
